Measurements from US9862713B2, “Substituted bicyclic heteroaryl compounds as RXR agonists” (CONNEXIOS LIFE SCIENCES PVT. LTD., priority 2014, dated 2018).

The molecules below were run on hRXR α, β, or γ (assay: Transactivation assay (RARE-Luc dual luciferase reporter in HEK-293 cells), activity relative to LG268). Settings: compound at 300 nM, 24 h; luciferase activity expressed relative to LG268.
Type: cell-based, human
Description: HEK-293 cells (ATCC) were seeded one day prior to transfection. For assessing EC50 of activation of RXR isoforms 2 μg of hRXR α, β, or γ (OriGENE, USA) over-expressing vector, 1 μg of plasmid expressing firefly luciferase under RARE element (RARE-Luc) and 25 ng of renilla luciferase vector (QIAGEN, USA) were co-transfected using lipofectamine reagent. Post 24 h of transfection, cells were treated with different concentrations of RXR agonists (100 nM, 300 nM and 1 uM) for 24 h followed by estimation of luciferase activity using Dual Luciferase Reporter Assay System (Promega). Luciferase activity was normalized to that of renilla luciferase. The activities of the RXR compounds were expressed relative to LG268, a known RXR agonist.

Row | SMILES | Activity at 300 nM
1 | CC1(C)CCC(C)(C)c2sc(Oc3ccc(C(=O)O)cc3)nc21 [Compound 46, 4-[(4,4,7,7-Tetramethyl-4,5,6,7-tetrahydro-1,3-benzothiazol-2-yl)oxy]benzoic acid] | ** (>0.3 and <0.4)
2 | Cc1c(N(CC(C)C)c2ccc(C(=O)O)c([N+](=O)[O-])c2)sc2c1C(C)(C)CCC2(C)C [Compound 51, 4-[(2-methylpropyl) (3,4,4,7,7-pentamethyl-4,5,6,7-tetrahydro-1-benzothiophen-2-yl)amino]-2-nitrobenzoic acid] | ***** (>0.6)
3 | CC1(C)CC(=O)C(C)(C)c2nc(N(CC3CC3)c3ccc(C(=O)O)cn3)sc21 [Compound 52, 6-[(cyclopropylmethyl) (4,4,7,7-tetramethyl-5-oxo-4,5,6,7-tetrahydro-1,3-benzothiazol-2-yl)amino]pyridine-3-carboxylic acid] | ***** (>0.6)
4 | CC(C)CN(c1ccc(C(=O)O)cc1)c1nc2c(s1)C(C)(C)CC(=O)C2(C)C [Compound 53, 4-[(2-methylpropyl) (4,4,7,7-tetramethyl-5-oxo-4,5,6,7-tetrahydro-1,3-benzothiazol-2-yl)amino]benzoic acid] | ***** (>0.6)
5 | COc1cc(N(CC(C)C)c2sc3c(c2C)C(C)(C)CCC3(C)C)ccc1C(=O)O [Compound 54, 2-methoxy-4-[(2-methylpropyl)(3,4,4,7,7-pentamethyl-4,5,6,7-tetrahydro-1-benzothiophen-2-yl)amino]benzoic acid] | *** (>0.4 and <0.5)
6 | Cc1c(N(CC(C)C)c2ccc(C(=O)O)c(OCC3CC3)c2)sc2c1C(C)(C)CCC2(C)C [Compound 55, 2-(cyclopropylmethoxy)-4-[(2-methylpropyl) (3,4,4,7,7-pentamethyl-4,5,6,7-tetrahydro-1-benzothiophen-2-yl)amino]benzoic acid] | *** (>0.4 and <0.5)
7 | C#CCOc1cc(N(CC(C)C)c2sc3c(c2C)C(C)(C)CCC3(C)C)ccc1C(=O)O [Compound 56, 4-[(2-methylpropyl) (3,4,4,7,7-pentamethyl-4,5,6,7-tetrahydro-1-benzothiophen-2-yl)amino]-2-(prop-2-yn-1-yloxy)benzoic acid] | *** (>0.4 and <0.5)
8 | Cc1c(N(CC(C)C)c2ccc(C(=O)O)c(Oc3ccccc3)c2)sc2c1C(C)(C)CCC2(C)C [Compound 57, 4-[(2-methylpropyl) (3,4,4,7,7-pentamethyl-4,5,6,7-tetrahydro-1-benzothiophen-2-yl)amino]-2-phenoxybenzoic acid] | ***** (>0.6)
9 | Cc1cc(N(CC(C)C)c2nc3c(s2)C(C)(C)CCC3(C)C)ccc1C(=O)O [Compound 58, 2-methyl-4-[(2-methylpropyl) (4,4,7,7-tetramethyl-4,5,6,7-tetrahydro-1,3-benzothiazol-2-yl)amino]benzoic acid] | *** (>0.4 and <0.5)
10 | Cc1cc(N(CC2CC2)c2nc3c(s2)C(C)(C)CCC3(C)C)ccc1C(=O)O [Compound 59, 4-[(cyclopropylmethyl) (4,4,7,7-tetramethyl-4,5,6,7-tetrahydro-1,3-benzothiazol-2-yl)amino]-2-methylbenzoic acid] | ** (>0.3 and <0.4)
11 | Cc1cc(C(=O)O)ccc1N(CC1CC1)c1nc2c(s1)C(C)(C)CCC2(C)C [Compound 60, 4-[(cyclopropylmethyl) (4,4,7,7-tetramethyl-4,5,6,7-tetrahydro-1,3-benzothiazol-2-yl)amino]-3-methylbenzoic acid] | ** (>0.3 and <0.4)
12 | Cc1cc(C(=O)O)ccc1N(CC(C)C)c1nc2c(s1)C(C)(C)CCC2(C)C [Compound 61, 3-methyl-4-[(2-methylpropyl) (4,4,7,7-tetramethyl-4,5,6,7-tetrahydro-1,3-benzothiazol-2-yl)amino]benzoic acid] | **** (>0.5 to <0.6)
13 | C=CCN(c1ccc(C(=O)O)cc1)c1nc2c(s1)C(C)(C)CCC2(C)C [Compound 62, 4-[prop-2-en-1-yl(4,4,7,7-tetramethyl-4,5,6,7-tetrahydro-1,3-benzothiazol-2-yl)amino]benzoic acid] | ***** (>0.6)
14 | CC1(C)CCC(C)(C)c2sc(N(c3ccc(C(=O)O)cc3)c3ccc(C(=O)O)o3)nc21 [Compound 63, 5-[(4-carboxyphenyl) (4,4,7,7-tetramethyl-4,5,6,7-tetrahydro-1,3-benzothiazol-2-yl)amino]furan-2-carboxylic acid] | *** (>0.4 and <0.5)
15 | CC(C)CN(c1ccc(C(=O)O)cn1)c1nc2c(s1)C(C)(C)CCC2(C)C [Compound 64, 6-[(2-methylpropyl) (4,4,7,7-tetramethyl-4,5,6,7-tetrahydro-1,3-benzothiazol-2-yl)amino]pyridine-3-carboxylic acid] | ***** (>0.6)
16 | CCCN(c1ccc(C(=O)O)cn1)c1nc2c(s1)C(C)(C)CCC2(C)C [Compound 65, 6-[propyl(4,4,7,7-tetramethyl-4,5,6,7-tetrahydro-1,3-benzothiazol-2-yl)amino]pyridine-3-carboxylic acid] | ***** (>0.6)
17 | CC1(C)CCC(C)(C)c2sc(N(Cc3ccccc3)c3ccc(C(=O)O)cn3)nc21 [Compound 66, 6-[benzyl(4,4,7,7-tetramethyl-4,5,6,7-tetrahydro-1,3-benzothiazol-2-yl)amino]pyridine-3-carboxylic acid] | ***** (>0.6)
18 | CC(C)CN(c1ccc(C(=O)O)nc1)c1nc2c(s1)C(C)(C)CCC2(C)C [Compound 67, 5-[(2-methylpropyl) (4,4,7,7-tetramethyl-4,5,6,7-tetrahydro-1,3-benzothiazol-2-yl)amino]pyridine-2-carboxylic acid] | * (<0.3)

Same assay, conditions: compound at 1 µM, 24 h; luciferase activity expressed relative to LG268

Row | SMILES | Activity at 1 µM
19 | CCOC1CC(C)(C)c2sc(N(C)c3ccc(C(=O)O)cc3)nc2C1(C)C (stereo not drawn) [Compound 35, 4-[(5-Ethoxy-4,4,7,7-tetramethyl-4,5,6,7-tetrahydro-1,3-benzothiazol-2-yl)(methyl)amino]benzoic acid] | *** (>0.8 and <0.9)
20 | CC1(C)CCC(C)(C)c2sc(N(c3ccc(C(=O)O)cc3)C3CC3)nc21 [Compound 36, 4-[Cyclopropyl(4,4,7,7-tetramethyl-4,5,6,7-tetrahydro-1,3-benzothiazol-2-yl)amino]benzoic acid] | ***** (>1)
21 | CC1(C)CCC(C)(C)c2sc(N(c3ccc(C(=O)O)cn3)C3CC3)nc21 [Compound 37, 6-[Cyclopropyl(4,4,7,7-tetramethyl-4,5,6,7-tetrahydro-1,3-benzothiazol-2-yl)amino]pyridine-3-carboxylic acid] | ***** (>1)
22 | CC1(C)CCC(C)(C)c2sc(N(CC3CC3)c3ccc(C(=O)O)cc3)nc21 [Compound 38, 4-[(Cyclopropylmethyl) (4,4,7,7-tetramethyl-4,5,6,7-tetrahydro-1,3-benzothiazol-2-yl)amino]benzoic acid] | *** (>0.8 and <0.9)
23 | CCN(c1ccc(C(=O)O)cn1)c1nc2c(s1)C(C)(C)CCC2(C)C [Compound 39, 6-[Ethyl(4,4,7,7-tetramethyl-4,5,6,7-tetrahydro-1,3-benzothiazol-2-yl)amino]pyridine-3-carboxylic acid] | ***** (>1)
24 | CCN(c1ccc(C(=O)O)cn1)c1nc2c(s1)C(C)(C)CC(=O)C2(C)C [Compound 41, 6-[Ethyl(4,4,7,7-tetramethyl-5-oxo-4,5,6,7-tetrahydro-1,3-benzothiazol-2-yl)amino]pyridine-3-carboxylic acid] | * (<0.7)
25 | CCN(c1ncc(C(=O)O)cn1)c1nc2c(s1)C(C)(C)CCC2(C)C [Compound 42, 2-[Ethyl(4,4,7,7-tetramethyl-4,5,6,7-tetrahydro-1,3-benzothiazol-2-yl)amino]pyrimidine-5-carboxylic acid] | ** (>0.7 and <0.8)
26 | CC1(C)CCC(C)(C)c2sc(N(CC3CC3)c3ncc(C(=O)O)cn3)nc21 [Compound 43, 2-[(Cyclopropylmethyl) (4,4,7,7-tetramethyl-4,5,6,7-tetrahydro-1,3-benzothiazol-2-yl)amino]pyrimidine-5-carboxylic acid] | * (<0.7)
27 | Cc1nc2cc(C(=O)O)ccc2n1-c1nc2c(s1)C(C)(C)CCC2(C)C [Compound 44, 2-Methyl-1-(4,4,7,7-tetramethyl-4,5,6,7-tetrahydro-1,3-benzothiazol-2-yl)-1H-benzimidazole-5-carboxylic acid] | * (<0.7)
28 | CC1(C)CCC(C)(C)c2sc(-n3nnc4cc(C(=O)O)ccc43)nc21 [Compound 45, 1-(4,4,7,7-Tetramethyl-4,5,6,7-tetrahydro-1,3-benzothiazol-2-yl)-1H-benzotriazole-5-carboxylic acid] | * (<0.7)
29 | CC1(C)CCC(C)(C)c2sc(Oc3ccc(C(=O)O)cc3)nc21 [Compound 46, 4-[(4,4,7,7-Tetramethyl-4,5,6,7-tetrahydro-1,3-benzothiazol-2-yl)oxy]benzoic acid] | * (<0.7)
30 | CC1(C)CCC(C)(C)c2sc(C(=O)c3ccc(C(=O)O)cc3)nc21 [Compound 47, 4-[(4,4,7,7-Tetramethyl-4,5,6,7-tetrahydro-1,3-benzothiazol-2-yl)carbonyl]benzoic acid] | * (<0.7)
31 | CC1(C)CCC(C)(C)c2sc(/C=C/c3ccc(C(=O)O)cc3)nc21 [Compound 48, 4-[(E)-2-(4,4,7,7-Tetramethyl-4,5,6,7-tetrahydro-1,3-benzothiazol-2-yl)ethenyl]benzoic acid] | * (<0.7)
32 | CC1(C)CCC(C)(C)c2sc(/C=C\c3ccc(C(=O)O)cc3)nc21 [Compound 49, 4-[(Z)-2-(4,4,7,7-Tetramethyl-4,5,6,7-tetrahydro-1,3-benzothiazol-2-yl)ethenyl]benzoic acid] | ***** (>1)
33 | CC1(C)CCC(C)(C)c2sc(/C=C/c3ccc(C(=O)O)cn3)nc21 [Compound 50, 6-[(E)-2-(4,4,7,7-Tetramethyl-4,5,6,7-tetrahydro-1,3-benzothiazol-2-yl)ethenyl]pyridine-3-carboxylic acid] | * (<0.7)
